The record followed here is PMC6930494, “Immobilization of Naringinase from Penicillium decumbens on Chitosan Microspheres for Debittering Grapefruit Juice” (Molecules, 2019).

As usually defined, the Km is the substrate concentration at which the rate is half of its maximum.

The assay deals with T1, naringinase.
T1 construct: gene naringinase alpha-L-rhamnosidase activity
Description: initial rates of naringin hydrolysis, Davis or DNS method, Lineweaver-Burk. It counts as biochemical, Penicillium decumbens. As to conditions: free enzyme; 0.1 M acetate buffer pH 4.0, 50 °C; naringin 0.5-20 mM; commercial enzyme complex. From the text: initial rates of naringin hydrolysis, Davis or DNS method, Lineweaver-Burk on naringinase

The structures appear in SMILES notation.

As for `C[C@@H]1O[C@@H](O[C@H]2[C@H](Oc3cc(O)c4c(c3)O[C@H](c3ccc(O)cc3)CC4=O)O[C@H](CO)[C@@H](O)[C@@H]2O)[C@H](O)[C@H](O)[C@H]1O` [naringin], the Km worked out at 2560 µM.
